Activity calls are given as the source filed them. The rule behind the calls is not given here. Where only a bound is given, the exact number is not on record here.

This note sets out measurements from ChEMBL document CHEMBL4387784, “Triterpenoids from Ganoderma gibbosum: A Class of Sensitizers of FLC-Resistant Candida albicans to Fluconazole” (2019).

Test [1] has as its system Candida albicans. Kind of test: Antifungal activity against normal Candida albicans assessed as inhibition of microbial growth at 200 ug/mL incubated for 24 hrs by microbroth dilution assay relative to untreated control. To be noted: read-out: GI. Type of test: functional. A general note: Dilution methods test growth across graded concentrations, often in twofold steps.

For test [2], the system named is Candida albicans. Kind of test: Chemo-sensitization of fluconazole antifungal activity against FLC-resistant Candida albicans assessed as inhibition of microbial growth in presence of fluconazole at 1:1 ratio of compound to fluconazole incubated for 24 hrs by microbroth dilution assay relative to untreated control. Format: functional.
For test [3], the system named is Candida albicans. Kind of test: Chemo-sensitization of fluconazole antifungal activity against FLC-resistant Candida albicans assessed as inhibition of microbial growth at 200 ug/mL in presence of fluconazole incubated for 24 hrs by microbroth dilution assay relative to untreated control. Format: functional, organism-based.
Test [4] deals with Candida albicans. Kind of test: Antifungal activity against FLC-resistant Candida albicans assessed as inhibition of microbial growth incubated for 24 hrs by microbroth dilution assay relative to untreated control. Type of test: functional.
For test [5], the system named is Candida albicans. The experiment in a line: Antifungal activity against FLC-resistant Candida albicans assessed as inhibition of microbial growth at 200 ug/mL incubated for 24 hrs by microbroth dilution assay relative to untreated control. Type of test: functional. To be noted: read-out: GI.

`C/C(=C\[C@H]1C[C@H](C)C(=O)O1)[C@H]1C[C@H](O)[C@]2(C)[C@]1(C)C(=O)C=C1[C@@]3(C)CCC(=O)C(C)(C)[C@@H]3C[C@H]3O[C@@]132`: the inhibition of growth at 200 µg/mL with Candida albicans [1] is less than 50%. In addition, the MIC50 in the test with Candida albicans [2] stood at 47.9 µg/mL. Further, in the test on Candida albicans [3], the “growth inhibition (GI)” value was “Active”.

Consider `C[C@@H](CC(=O)C[C@](C)(O)C1=C[C@@H](O)[C@]2(C)[C@]1(C)C(=O)C=C1[C@]23O[C@H]3C[C@H]2C(C)(C)[C@@H](O)CC[C@]12C)C(=O)O`, for which the inhibition of growth at 200 µg/mL in the test with Candida albicans [1] is less than 50%. Besides, in the test on Candida albicans [2], the MIC50 turned out to be 8.8 µg/mL. Further, the “growth inhibition (GI)” value in the test on Candida albicans [3] is “Active”.

With `C/C(=C\C(=O)C[C@H](C)C(=O)O)[C@H]1C[C@@H](O)[C@@]2(C)C3=C([C@@H](O)[C@H](O)[C@]12C)[C@@]1(C)CCC(=O)C(C)(C)[C@@H]1CC3=O`, in the test with Candida albicans [1], the inhibition of growth at 200 µg/mL was less than 50%. For the same compound, the “growth inhibition (GI)” value in the test on Candida albicans [3] was “Active”.

Regarding `C/C(=C\[C@H]1C[C@H](C)C(=O)O1)[C@H]1C[C@@H](O)[C@]2(C)[C@]1(C)C(=O)C=C1[C@@]3(C)CCC(=O)C(C)(C)[C@@H]3C[C@H]3O[C@@]132`, the inhibition of growth at 200 µg/mL with Candida albicans [1] is less than 50%. Further, in the test on Candida albicans [2], the MIC50 came out at 5 µg/mL. The “growth inhibition (GI)” value with Candida albicans [3] was “Active”.

With `C/C(=C\C(=O)C[C@H](C)C(=O)O)[C@H]1C[C@@H](O)[C@@]2(C)C3=C(C=C[C@]12C)[C@@]1(C)CCC(=O)C(C)(C)[C@@H]1CC3=O`, in the test with Candida albicans [1], the inhibition of growth at 200 µg/mL is less than 50%. Also, the “growth inhibition (GI)” value with Candida albicans [3] is “Active”.

As for `OC(Cn1cncn1)(Cn1cncn1)c1ccc(F)cc1F` [FLUCONAZOLE], in the test on Candida albicans [4], the MIC50 was found to be 6.3 µg/mL.

In the case of `C/C(=C\C(=O)C[C@H](C)C(=O)O)[C@H]1C[C@@H](O)[C@@]2(C)C3=C(C[C@H](O)[C@]12C)[C@@]1(C)CCC(=O)C(C)(C)[C@@H]1CC3=O`, the inhibition of growth at 200 µg/mL with Candida albicans [1] was less than 50%. Further, the “growth inhibition (GI)” value in the test with Candida albicans [3] is “Active”.

Regarding `C[C@@H](CC(=O)C[C@](C)(O)C1=C[C@H](O)[C@]2(C)[C@]1(C)C(=O)C=C1[C@]23O[C@H]3C[C@H]2C(C)(C)C(=O)CC[C@]12C)C(=O)O`, the inhibition of growth at 200 µg/mL in the test with Candida albicans [1] is less than 50%. Besides, in the test with Candida albicans [2], the MIC50 was 37.7 µg/mL. Also, the “growth inhibition (GI)” value in the test with Candida albicans [3] was “Active”.

Take `C/C(=C\[C@@H]1C[C@H](C)C(=O)O1)[C@H]1C[C@@H](O)[C@]2(C)[C@]1(C)C(=O)C=C1[C@@]3(C)CCC(=O)C(C)(C)[C@@H]3C[C@H]3O[C@@]132`: the inhibition of growth at 200 µg/mL in the test on Candida albicans [1] was less than 50%. In addition, the MIC50 in the test with Candida albicans [2] came to 37.8 µg/mL. In addition, the “growth inhibition (GI)” value with Candida albicans [3] is “Active”.

For `C[C@H]1C[C@@]2(C[C@](C)(O)C3=C[C@@H](O)[C@@]4(C)C5=C(C(=O)[C@H](O2)[C@]34C)[C@@]2(C)CCC(=O)C(C)(C)[C@@H]2CC5=O)OC1=O`, in the test with Candida albicans [1], the inhibition of growth at 200 µg/mL is less than 50%. Also, the MIC50 in the test with Candida albicans [2] turned out to be 78 µg/mL. In the test with Candida albicans [3], the “growth inhibition (GI)” value was “Active”.

With `C[C@@H](CC(=O)C[C@](C)(O)C1=CC(=O)[C@]2(C)[C@]1(C)C(=O)C=C1[C@]23O[C@H]3C[C@H]2C(C)(C)C(=O)CC[C@]12C)C(=O)O`, the inhibition of growth at 200 µg/mL in the test on Candida albicans [1] was less than 50%. Moreover, the MIC50 in the test with Candida albicans [2] was 3.8 µg/mL. In the test on Candida albicans [3], the “growth inhibition (GI)” value is “Active”.

Take `C=C(C)[C@@H]1C[C@H]2O[C@@]23C(=CC(=O)[C@]2(C)[C@@H](/C(C)=C/[C@H]4C[C@H](C)C(=O)O4)C[C@H](O)[C@]23C)[C@@]1(C)CCC(=O)OC`: the inhibition of growth at 200 µg/mL in the test with Candida albicans [1] is less than 50%. The MIC50 in the test on Candida albicans [2] worked out at 129 µg/mL. Also, in the test on Candida albicans [3], the “growth inhibition (GI)” value is “Active”.

Take `C/C(=C\C(=O)C[C@H](C)C(=O)O)[C@H]1C[C@@H](O)[C@@]2(C)C3=C(C(=O)[C@H](O)[C@]12C)[C@@]1(C)CCC(=O)C(C)(C)[C@@H]1CC3=O`: the inhibition of growth at 200 µg/mL in the test on Candida albicans [1] is less than 50%. The MIC50 with Candida albicans [2] amounted to 4.4 µg/mL. Also, the “growth inhibition (GI)” value with Candida albicans [3] is “Active”.

On to `C/C(=C\C(=O)C[C@H](C)C(=O)O)[C@H]1C[C@H](O)[C@@]2(C)[C@]34O[C@@H]3C[C@H]3C(C)(C)C(=O)CC[C@]3(C)C4=CC(=O)[C@]12C`, for which the inhibition of growth at 200 µg/mL is 55% in the test on Candida albicans [1] and less than 50% with Candida albicans [5]. Further, the MIC50 in the test with Candida albicans [2] was 7.3 µg/mL. Moreover, the “growth inhibition (GI)” value with Candida albicans [3] is “Active”.

With `C/C(=C\C(=O)C[C@H](C)C(=O)O)[C@H]1C[C@H](O)[C@@]2(C)C3=C(C=C[C@]12C)[C@@]1(C)CCC(=O)C(C)(C)[C@@H]1CC3=O`, in the test with Candida albicans [1], the inhibition of growth at 200 µg/mL is less than 50%. Also, the MIC50 in the test with Candida albicans [2] stood at 5.1 µg/mL. In addition, in the test with Candida albicans [3], the “growth inhibition (GI)” value is “Active”.

Turning to `C/C(=C\C(=O)C[C@H](C)C(=O)O)[C@H]1C[C@H](O)[C@@]2(C)C3=CC[C@H]4C(C)(C)C(=O)CC[C@]4(C)C3=CC(=O)[C@]12C`, the inhibition of growth at 200 µg/mL in the test with Candida albicans [1] was less than 50%. Moreover, the MIC50 in the test on Candida albicans [2] came out at 70 µg/mL. Moreover, the “growth inhibition (GI)” value with Candida albicans [3] was “Active”.

Consider `C/C(=C\C(=O)C[C@H](C)C(=O)O)[C@H]1C[C@H](O)[C@@]2(C)[C@]34O[C@H]3C[C@H]3C(C)(C)C(=O)CC[C@]3(C)C4=CC(=O)[C@]12C`, for which, in the test on Candida albicans [1], the inhibition of growth at 200 µg/mL is less than 50%. Also, the “growth inhibition (GI)” value in the test with Candida albicans [3] is “Active”.

For the compound `C=C(C)[C@@H]1C[C@H]2O[C@@]23C(=CC(=O)[C@]2(C)[C@@H](/C(C)=C/[C@H]4C[C@H](C)C(=O)O4)C[C@@H](O)[C@]23C)[C@@]1(C)CCC(=O)O`, the inhibition of growth at 200 µg/mL with Candida albicans [1] was less than 50%. Also, the MIC50 in the test with Candida albicans [2] was found to be 25.8 µg/mL. For the same compound, the “growth inhibition (GI)” value with Candida albicans [3] was “Active”.

Turning to `C[C@@H](CC(=O)C[C@](C)(O)C1=CC(=O)[C@]2(C)[C@]1(C)C(=O)C=C1[C@]23O[C@H]3C[C@H]2C(C)(C)[C@@H](O)CC[C@]12C)C(=O)O`, the inhibition of growth at 200 µg/mL with Candida albicans [1] was less than 50%. Moreover, in the test on Candida albicans [2], the MIC50 was found to be 28.3 µg/mL. Moreover, the “growth inhibition (GI)” value with Candida albicans [3] was “Active”.

For `C=C(C)[C@@H]1C[C@H]2O[C@@]23C(=CC(=O)[C@]2(C)[C@@H](/C(C)=C/[C@H]4C[C@H](C)C(=O)O4)C[C@H](O)[C@]23C)[C@@]1(C)CCC(=O)O`, the inhibition of growth at 200 µg/mL in the test with Candida albicans [1] is less than 50%. Moreover, the MIC50 in the test with Candida albicans [2] is 29.4 µg/mL. The “growth inhibition (GI)” value with Candida albicans [3] is “Active”.

For `C[C@@H](CC(=O)C[C@](C)(O)C1=C[C@@H](O)[C@]2(C)[C@]1(C)C(=O)C=C1[C@]23O[C@H]3C[C@H]2C(C)(C)C(=O)CC[C@]12C)C(=O)O`, in the test on Candida albicans [1], the inhibition of growth at 200 µg/mL was less than 50%. Also, the MIC50 in the test on Candida albicans [2] stood at 29 µg/mL. In addition, the “growth inhibition (GI)” value in the test with Candida albicans [3] was “Active”.

For `C/C(=C\[C@@H]1C[C@H](C)C(=O)O1)[C@H]1C[C@H](O)[C@]2(C)[C@]1(C)C(=O)C=C1[C@@]3(C)CCC(=O)C(C)(C)[C@@H]3C[C@H]3O[C@@]132`, the inhibition of growth at 200 µg/mL with Candida albicans [1] is less than 50%. For the same compound, in the test on Candida albicans [2], the MIC50 was 4.7 µg/mL. The “growth inhibition (GI)” value in the test with Candida albicans [3] was “Active”.

In general, MIC50 refers to the lowest concentration that inhibits either 50% of growth or 50% of the strains tested, depending on the study.
